Results from PMC3125126 (European journal of pharmacology, 2010).
Where “and” joins values, the source holds several entries; their conditions need not be identical. Identical values can stand only once. Like-named read-outs stand apart in the source and are kept apart here.

Columns and labels:
dopamine transporter [1] = conditions: ref Chen et al., 2003, cited from earlier work
[2] = system: Ca2+-independent phospholipase A2; conditions: ref Yang et al., 1999; cited from earlier work
[3] = target: T1, human dopamine transporter (hDAT) (Homo sapiens, UniProt Q01959); experiment: [125I]RTI-55 binding to membranes of HEK-D2-hDAT cells; conditions: no melittin, 4°C, 16 h, 4 independent experiments
HEK-D2-hDAT cells = experiment: [3H]Arachidonic acid release from preloaded cells; type: cell-based, human; conditions: quinpirole 1 nM to 10 µM; loaded 4 or 24 hours; data not shown
[4] = system: phospholipase C activity in HEK-D2-hDAT cells; type: cell-based, human
[5] = system: purified synaptosomes from rat striatum; conditions: rat striatal synaptosomes; ref L'hirondel et al., 1995; cited from earlier work
glutamate uptake = conditions: ref Volterra et al., 1992, 1994; cited from earlier work
[6] = system: rat glutamate transporter, EAAT4; conditions: ref Fairman et al., 1998, Tzingounis et al.; cited from earlier work
dopamine transporter [7] = conditions: ref Ingram and Amara, 2000; cited from earlier work
protein kinase Cγ = conditions: bovine cerebellar cells; ref Shearman et al., 1989; cited from earlier work
[8] = target: T1, human dopamine transporter (hDAT); type: cell-based; conditions: butaclamol 100 nM added 10 min before uptake, with melittin 30 min pretreatment
[9] = system: Ca2+-dependent phospholipase A2; conditions: ref Street et al., 1993; cited from earlier work
[10] = target: T1, human dopamine transporter (hDAT); experiment: Dopamine transporter internalization by biotinylation; type: cell-based
dopamine transporter [11] = conditions: ref Daniels and Amara, 1999; cited from earlier work
[12] = system: phospholipase A2 activity in HEK-D2-hDAT cells; experiment: Phospholipase A2 activity after cell treatment; type: cell-based, human; conditions: melittin 10 µM and/or quinacrine 10 µM, 30 min; n=3; not significant P>0.05
rat Leydig cells = conditions: ref Ronco et al., 2002; cited from earlier work
[13] = system: rat (ventral tegmental area); conditions: pretreatment with quinacrine; ref Reid et al., 1996; cited from earlier work
[14] = ref Sugama et al., 2005; Nakamura et al., 2004; cited from earlier work
[15] = system: GTP binding regulatory proteins; conditions: ref Higashijima et al., 1988; cited from earlier work

T1 sequence (Q01959 whole entry): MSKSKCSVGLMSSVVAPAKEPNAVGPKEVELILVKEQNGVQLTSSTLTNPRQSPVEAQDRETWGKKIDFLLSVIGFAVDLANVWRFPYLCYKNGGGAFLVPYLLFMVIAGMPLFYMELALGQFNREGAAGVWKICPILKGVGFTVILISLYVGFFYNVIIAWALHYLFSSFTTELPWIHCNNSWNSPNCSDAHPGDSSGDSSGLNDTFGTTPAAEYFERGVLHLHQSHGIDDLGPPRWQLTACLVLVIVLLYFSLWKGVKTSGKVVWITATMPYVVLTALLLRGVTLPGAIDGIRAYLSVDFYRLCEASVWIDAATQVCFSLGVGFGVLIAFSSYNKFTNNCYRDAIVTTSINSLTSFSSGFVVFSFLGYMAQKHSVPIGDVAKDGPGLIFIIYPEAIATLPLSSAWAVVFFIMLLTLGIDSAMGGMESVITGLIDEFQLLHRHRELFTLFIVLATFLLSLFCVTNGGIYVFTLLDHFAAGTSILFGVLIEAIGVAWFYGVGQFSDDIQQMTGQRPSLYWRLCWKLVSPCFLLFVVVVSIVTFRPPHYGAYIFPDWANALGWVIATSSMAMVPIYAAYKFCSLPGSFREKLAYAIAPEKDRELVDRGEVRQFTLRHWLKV

In the case of CCCCC/C=C\C/C=C\C/C=C\C/C=C\CCCC(=O)OCC [Arachidonic acid ethyl ester], the “effect on dopamine transporter function (mimicry of arachidonic acid)” value (dopamine transporter [1]; Ingram and Amara, 2000) is listed as “does not mimic the effects of arachidonic acid on dopamine transporter function”.

For O=C1O/C(=C/Br)CCC1c1cccc2ccccc12 (stereo not shown) [4-bromoenol lactone], the “inhibition of Ca2+-independent phospholipase A2” value [2] is listed as “selectively inhibited”.

For COC(=O)[C@H]1C(c2ccc(I)cc2)C[C@@H]2CC[C@H]1N2C (stereo partly shown) [RTI-55], the “RTI-55 Bmax” value ([3]; protease inhibitors) was 6.7 ± 0.8 pmol/mg and the Kd ([3]; read-out: RTI-55 KD) was 8.3 ± 1.8 nM.

In the case of CCCN1CCC[C@@H]2Cc3n[nH]cc3C[C@H]21 [quinpirole], the “release of loaded [3H]arachidonic acid” value (HEK-D2-hDAT cells) is reported as “less than 0.4%” and the “inositol phosphate-1 concentration” value ([4]; quinpirole 1 µM, 1 hour, basal 8.3 ± 2.5 nM, n=3, not significant P>0.05) is reported as 11.1 ± 2.0 nM.

In the case of CCCCC/C=C\C/C=C\C/C=C\C/C=C\CCCC(=O)O [arachidonic acid], the “spontaneous dopamine release, dopamine synthesis and uptake” value [5] is listed as “dose-dependently increases spontaneous release of dopamine and decreases dopamine synthesis and uptake”, the “effect on uptake of glutamate” value (glutamate uptake) is listed as “inhibits uptake of glutamate” and the “effect on proton conductance” value [6] is listed as “alters proton conductance”. The “effect on cation conductance” value (dopamine transporter [7]) was “directly stimulates a cocaine-sensitive cation conductance”, the “protein kinase Cγ activation” value (protein kinase Cγ) was “can activate protein kinase Cγ” and the “dopamine uptake by rotating disk electrode voltammetry” value (dopamine transporter [1]) was “decrease in dopamine uptake”.

With NC[C@@H]1O[C@H](O[C@H]2[C@@H](O)[C@H](O[C@@H]3[C@@H](O)[C@H](N)C[C@H](N)[C@H]3O[C@H]3O[C@H](CN)[C@@H](O)[C@H](O)[C@H]3N)O[C@@H]2CO)[C@H](N)[C@@H](O)[C@@H]1O [neomycin] the “phospholipase C activity in presence of melittin without or with neomycin” value ([4]; neomycin 30 µM pretreatment, melittin 1.3 µM, 1 hour) was “no significant difference”.

With CC(C)(C)[C@]1(O)CCN2C[C@H]3c4ccccc4CCc4cccc(c43)[C@@H]2C1 [butaclamol] the “effect of D2 receptor block on [3H]dopamine uptake” value [8] was “no difference in [^3H]dopamine uptake”.

In the case of CCCCCCCC/C=C\CCCCCCCC(=O)O [oleic, oleic acid], the “dopamine uptake by rotating disk electrode voltammetry” value (dopamine transporter [1]) is listed as “inhibit dopamine transporter-mediated uptake, although to a lesser degree”.

In the case of CCCCC/C=C\C/C=C\C/C=C\C/C=C\CCCC(=O)C(F)(F)F [Arachidonyl trifluoromethyl ketone], the “inhibition of Ca2+-dependent phospholipase A2” value [9] is given as “potent and selective inhibitor”.

In the case of COC(=O)[C@H]1[C@@H](OC(=O)c2ccccc2)C[C@@H]2CC[C@H]1N2C [cocaine], the dopamine transporter internalization [10] is given as 97.8 ± 6.2 % of control and 93.9 ± 8.4 % of control and the “effect on phorbol ester-induced dopamine transporter internalization” value (dopamine transporter [11]) is given as “does not alter phorbol ester-induced dopamine transporter internalization”.

In the case of CCCCC/C=C\C/C=C\CCCCCCCC(=O)O [linoleic acid], the “dopamine uptake by rotating disk electrode voltammetry” value (dopamine transporter [1]) is listed as “inhibit dopamine transporter-mediated uptake, although to a lesser degree”.

For CCN(CC)CCCC(C)Nc1c2ccc(Cl)cc2nc2ccc(OC)cc12 (stereo not shown) [quinacrine], the “phospholipase A2 activity” value [12] is given as 134 ± 19 % compared to control, the “effect on melittin-induced arachidonic acid release” value (rat Leydig cells) is given as “unable to inhibit melittin-induced release of arachidonic acid” and the “block of melittin-caused sensitization” value [13] is given as “blocked”.

In the case of NCCc1ccc(O)c(O)c1 [dopamine], the “inositol phosphate-1 concentration” value [4] is reported as 8.8 ± 3.0 nM.

In the case of mastoparan, the “effect on membrane lipid rafts” value [14] is given as “disrupts the membrane lipid rafts” and the “stimulation of GTP binding regulatory proteins” value [15] is given as “stimulate GTP binding regulatory proteins indirectly”.
